Test results reported in patent US20150374861A1, “KIT FOR TUMOR IMAGING” (THOMAS JEFFERSON UNVERSITY, priority 2013, published 2015).
Like-named read-outs stand apart in the source and are kept apart here.

Columns and labels:
[1] = literature, Ga-67 Citrate 10 mCi, Cu-64 ATSM 25 mCi, cited from earlier work; for Effective Dose: FDG-PET/CT F-18 10 mCi, Sestamibi Tc-99m 30 mCi, FDG-PET/PM w/o CT F-18 10 mCi
[2] = test system: primary tumor site and metastatic lymph nodes; assay: Whole body PET/CT imaging of breast cancer patients; assay type: in vivo, human; conditions: six PET/CT patients: six primary lesions, four involved lymph nodes
Experimental: Caucasian, Hispanic, African American or Asian non-pregnant women, eighteen years of age or older, with newly diagnosed, histologically proven BC were enrolled. Image guided percutaneous biopsy was performed two to six weeks prior to this imaging procedure. Each patient signed the informed consent form. For this feasibility study, a biostatistician determined that six patients be studied with PET and thirteen with PEM. This determination was based on the assumption that Cu-64-TP3805 will detect 80% of the lesions and there will be 87% power to conclude the use of this agent to diagnosis BC.
Each patient fasted for six hours prior to F-18-FDG injection. Before F-18-FDG injection, blood sugar was monitored. Patients with sugar levels below 250 mg/DL were enrolled. […]
For Cu-64-TP3805 imaging, patients neither fasted nor were blood sugar levels determined. […]
All images were read by two board certified nuclear medicine physicians and a board certified breast imaging physician. […] For six patients with PET/CT, standardized uptake values (SUV) were calculated for the primary tumor site and metastatic lymph nodes, and compared for the respective radiotracers. Metabolic tumor volume was calculated using 50% isocontour geometry method for comparison, as it is relatively a better parameter, as compared to SUV.

OC[C@H]1O[C@@H](O)[C@H]([18F])[C@@H](O)[C@@H]1O [F-18-FDG]
Effective Dose ([1]; listed as FDG-PET/CT): 31.9 mSv | Effective Dose ([1]; listed as FDG-PET/PM w/o CT): 2.8 mSv | detection of lesions [2]: ten lesions detected

O=C([O-])CC(O)(CC(=O)[O-])C(=O)[O-].[Ga+3] [Ga-67 Citrate]
Effective Dose [1]: 39 mSv | Liver Dose [1]: 69 mSv

CNC1=NN=C(C)C(C)=NN=C(NC)[S][64Cu][S]1 [Cu-64 ATSM]
Effective Dose [1]: 33.3 mSv | Liver Dose [1]: 361 mSv
